Laboratory results taken from ChEMBL document CHEMBL1127610, “Synthesis and atypical antipsychotic profile of some 2-(2-piperidinoethyl)benzocycloalkanones as analogues of butyrophenone” (J Med Chem, 1994).

Legend:
[1] = molecular target: 5-hydroxytryptamine receptor 2A (Rattus norvegicus, UniProt P14842); assay: Inhibition of [3H]ketanserin binding to 5-hydroxytryptamine 2A receptor rat frontal cortex membrane; format: tissue-based
D(1A) dopamine receptor = D(1A) dopamine receptor (Rattus norvegicus, UniProt P18901); assay: Inhibition of [3H]-SCH- 23390 binding to dopamine receptor D1 rat striatal membrane
Rattus norvegicus = species: Rattus norvegicus; assay: Value was obtained against serotonin-induced (5-HT2A) contractions in rat aorta rings; conditions: read-out: pA2 (converted)
D(2) dopamine receptor = D(2) dopamine receptor (Rattus norvegicus, UniProt P61169); assay: Inhibition of [3H]-spiperone […] binding to dopamine receptor D2 rat striatal membrane
D(2) dopamine receptor, sequence (P61169 whole entry): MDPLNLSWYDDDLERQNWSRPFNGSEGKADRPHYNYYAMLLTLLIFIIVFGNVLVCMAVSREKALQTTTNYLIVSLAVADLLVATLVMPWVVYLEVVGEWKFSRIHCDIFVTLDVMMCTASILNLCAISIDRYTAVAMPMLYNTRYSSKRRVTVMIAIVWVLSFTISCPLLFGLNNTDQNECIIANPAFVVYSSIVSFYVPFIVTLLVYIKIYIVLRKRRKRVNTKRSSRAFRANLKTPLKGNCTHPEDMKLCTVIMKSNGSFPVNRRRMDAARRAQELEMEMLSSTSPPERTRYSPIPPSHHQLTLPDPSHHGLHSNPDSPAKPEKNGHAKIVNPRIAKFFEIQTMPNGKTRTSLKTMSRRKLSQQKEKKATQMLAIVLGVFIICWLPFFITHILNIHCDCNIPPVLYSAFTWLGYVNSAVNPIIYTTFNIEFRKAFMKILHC

5-hydroxytryptamine receptor 2A, sequence (P14842 whole entry): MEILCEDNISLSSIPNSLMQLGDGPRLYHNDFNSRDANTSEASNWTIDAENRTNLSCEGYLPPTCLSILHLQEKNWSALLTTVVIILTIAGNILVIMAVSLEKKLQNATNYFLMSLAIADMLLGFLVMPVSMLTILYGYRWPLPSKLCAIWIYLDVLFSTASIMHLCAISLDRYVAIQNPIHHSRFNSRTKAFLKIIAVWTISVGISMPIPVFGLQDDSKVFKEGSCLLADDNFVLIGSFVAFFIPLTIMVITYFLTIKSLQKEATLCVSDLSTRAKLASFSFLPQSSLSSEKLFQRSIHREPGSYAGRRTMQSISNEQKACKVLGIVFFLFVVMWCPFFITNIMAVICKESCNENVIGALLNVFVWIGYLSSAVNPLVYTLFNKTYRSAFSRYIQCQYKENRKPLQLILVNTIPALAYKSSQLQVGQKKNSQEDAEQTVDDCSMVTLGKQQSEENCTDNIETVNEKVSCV
D(1A) dopamine receptor, sequence (P18901 whole entry): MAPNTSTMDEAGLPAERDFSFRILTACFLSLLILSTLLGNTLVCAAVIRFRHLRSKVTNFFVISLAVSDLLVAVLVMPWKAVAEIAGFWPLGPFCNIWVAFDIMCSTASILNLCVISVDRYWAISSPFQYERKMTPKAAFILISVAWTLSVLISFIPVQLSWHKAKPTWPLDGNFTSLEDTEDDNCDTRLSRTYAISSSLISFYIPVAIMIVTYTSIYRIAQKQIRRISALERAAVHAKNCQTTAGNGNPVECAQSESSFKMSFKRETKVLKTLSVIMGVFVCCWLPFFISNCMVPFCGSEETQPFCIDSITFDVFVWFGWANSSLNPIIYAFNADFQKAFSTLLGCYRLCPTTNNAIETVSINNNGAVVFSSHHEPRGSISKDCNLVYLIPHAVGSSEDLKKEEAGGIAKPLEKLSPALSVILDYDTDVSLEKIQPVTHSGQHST

Row | Ki [1] [nM] | Ki (D(1A) dopamine receptor) [nM] | Ki (D(2) dopamine receptor) [nM] | SMILES | Kb (Rattus norvegicus) [nM]
1 | 12.9 | 1290 | – | O=C(c1ccc(F)cc1)C1CCN(CCC2CCCc3ccccc3C2=O)CC1 (stereo not drawn) | 178
2 | 3.8 | 1100 | 47.9 | O=C(c1ccc(F)cc1)C1CCN(CCC2Cc3cc(F)ccc3C2=O)CC1 (stereo not drawn) | 7.59
3 | 2.51 | 2820 | – | O=C(c1ccc(F)cc1)C1CCN(CCC2Cc3ccccc3C2=O)CC1 (stereo not drawn) | 7.59
4 | 7.76 | 1550 | – | O=C(c1ccc(F)cc1)C1CCN(CCC2CCc3ccccc3C2=O)CC1 (stereo not drawn) | 35.5
